Key:
[1] = tested on: T1, DHFR in MDA-MB-468 lysates; experiment: Lysate cellular thermal shift assay (CETSA) for DHFR; type: binding, Human; conditions: 10 μM, MDA-MB-468 lysate, 45 °C for 3 min, DMSO at 37 °C = 100%
T1 construct: reactions containing 55 μg MDA-MB-468 lysate; endogenous in cells; host or cells: MDA-MB-468
Method: Trypsinized MDA-MB-468 cells were harvested by centrifugation at 200× g for 5 min and washed with PBS supplemented with EDTA-free PIC (Roche) and flash frozen for storage at −80 °C. Cells were lysed by resuspension in 60 μL PBS/PIC per 1 × 10^6 cells. Cells were lysed by three freeze-thaw cycles, where cells were frozen in an ethanol/dry ice bath for 3 min, immediately followed by incubation in a 37 °C water bath for 3 min. The insoluble fraction was removed by centrifugation at 20,000× g for 20 min at 4 °C. The supernatant containing the soluble lysate was removed and saved for subsequent steps.
After incubation, each reaction was transferred to a 1.5 mL tube and centrifuged at 20,000× g for 20 min at 4 °C to remove the insoluble proteins. After centrifugation, 18 μL of supernatant was carefully removed from each reaction, without disturbing any pelleted aggregates, and added to 4.5 μL of 5× SDS-PAGE loading buffer. 11 μL of each reaction was loaded onto a gel in duplicate, and proteins were detected by Western blot (as described below). Resulting band densities were fit to the Boltzmann equation to determine the melting temperature (Tm):(3) y=Bottom+Top−Bottom/1+e^Tm−x/Slope
To rescue the thermal degradation of DHFR by inhibitors, samples containing 10 μM inhibitor, 55 μg lysate, and 1% DMSO in a total volume of 28 μL in DHFR buffer were prepared in PCR tubes and incubated at room temperature for 20 min. Two DMSO-only controls were also prepared. Reactions containing inhibitors were then incubated at 45 °C for 3 min. One DMSO-only control was also heated at 45 °C for 3 min, and the other control was heated at 37 °C for 3 min. The soluble protein fraction was separated from the insoluble proteins by centrifugation, and proteins were separated by SDS-PAGE, as described above, and analyzed via Western blot, as described below. Each experiment was repeated 3 times.
Proteins were electrophoretically separated on a 10% gel, and proteins were transferred to a methanol-activated PVDF membrane using the Trans-Blot Turbo transfer system (Bio-Rad) for 7 min at 1.3 A and 25 V in Trans-Blot Turbo transfer buffer (Bio-Rad). Membranes were blocked with 5% skim milk w/v in TBS-T (20 mM Tris, 150 mM NaCl, 0.05% Tween-20) for 1 h at room temperature. […] The horseradish peroxidase (HRP)-linked anti-mouse IgG secondary antibody (NA931, Cytiva; 1:3000) was added for 1 h at room temperature in 5% skim milk w/v in TBS-T. Signal was detected by adding Immobilon Forte Western HRP Substrate (Millipore), and chemiluminescence was captured on a Sapphire Biomolecular Imager (Azure Biosystems). Band densities were determined using ImageJ (Fiji). The band intensity of DHFR was normalized to the thermostable loading control SOD1 [22].

MDA-MB-231 cells [2] = experiment: LC/MS-based metabolite profiling; type: cell-based, Human; conditions: 24 h
Method: For characterization by mass spectrometry, MDA-MB-231 cells were seeded at a density of 3 × 10^5 cells per well in 6-well plates. […] DMSO only and DMSO + folinic acid controls were also performed. Per condition, biological quadruplicates of approximately one million cells were harvested, washed briefly with 1 mL of 0.9% NaCl (prepared in LC/MS-grade water Fisher Scientific W6500), and extracted in 500 μL prechilled extraction buffer (80% LC/MS-grade methanol, 20% 125 mM ammonium acetate, 12.5 mM sodium ascorbate prepared in LC/MS-grade water and supplemented with aminopterin (catalog no.: 16.330; Schircks Laboratories) and isotopically labeled internal standards (17 amino acids and reduced glutathione [Cambridge Isotope Laboratories; MSK- A2-1.2 and CNLM-6245-10])) using a cell scraper. After centrifugation for 10 min, 4 °C, at maximum speed on a benchtop centrifuge (Eppendorf), the cleared supernatant was transferred to a new tube and dried using a nitrogen dryer (Reacti-Vap™ Evaporator, Thermo Fisher Scientific, TS-18826) while on ice. Once the drying process was completed, samples were reconstituted in 50 µL QReSS water (Cambridge Isotope Laboratories, MSK-QRESS-KIT) by brief sonication in a 4 °C water bath. Extracted metabolites were spun for 3 min, 4 °C, at maximum speed on a bench-top centrifuge, and cleared supernatant was transferred to LC/MS microvials (National Scientific, C5000-45B). Three microliters of each sample were pooled and serially diluted 3- and 10-fold to be used as quality controls throughout the run of each batch. Unlabeled QReSS metabolites (Cambridge Isotope Laboratories, MSK-QReSS-US-KIT) and unlabeled amino acid mix standard (Cambridge Isotope Laboratories, MSK-A2-US-1.2) were also included in the run to ensure high-quality metabolomics results.
One microliter (equivalent to 2 × 10^4 cells) of the reconstituted sample was injected into a ZIC-pHILIC 150 × 2.1 mm (5 µm particle size) column (EMD Millipore) operated on a Vanquish™ Flex UHPLC Systems (Thermo Fisher Scientific, San Jose, CA, USA). Chromatographic separation was achieved using the following conditions: buffer A was acetonitrile; buffer B was 20 mM ammonium carbonate, 0.1% ammonium hydroxide. Gradient conditions were: linear gradient from 20% to 80% B; 20–20.5 min: from 80% to 20% B; 20.5–28 min: hold at 20% B. The column oven and autosampler tray were held at 25 °C and 4 °C, respectively.
Mass spectrometry data acquisition was performed using a QExactive benchtop orbitrap mass spectrometer equipped with an Ion Max source and a HESI II probe (Thermo Fisher Scientific, San Jose, CA, USA) and was performed in positive and negative ionization mode in a range of m/z = 70–1000, with the resolution set at 70,000, the AGC target at 1 × 10^6, and the maximum injection time (Max IT) at 20 msec. For nucleotide tSIM scans, the resolution was set at 70,000, the AGC target was 1 × 10^5, and the max IT was 100 msec.
Manual curation and integration of chromatographic peaks were performed with TraceFinder 4.1 (Thermo Fisher Scientific, Waltham, MA, USA) using a 5 ppm mass tolerance and referencing an in-house library of chemical standards. Data from TraceFinder were further consolidated and normalized with an in-house R script: (https://github.com/FrozenGas/KanarekLabTraceFinderRScripts/blob/main/MS_data_script_v2.4_20221018.R (accessed on 22 November 2022)). Briefly, this script performs normalization and quality control steps: (1) extracts and combines the peak areas from TraceFinder output .csvs; (2) calculates and normalizes to an averaged factor from all mean-centered chromatographic peak areas of isotopically labeled amino acids internal standards within each sample; (3) filters out low-quality metabolites based on user inputted cut-offs calculated from pool reinjections and pool dilutions; (4) calculates and normalizes for biological material amounts based on the total integrated peak area values of high-confidence metabolites. […]

[3] = tested on: STAT3 transcriptional activity in U3A STAT3 luciferase reporter cell line; experiment: STAT3 luciferase reporter assay; type: cell-based; conditions: 0.02–20 μM, OSM 10 ng/mL
Method: The STAT3-dependent luciferase reporter assay was performed as previously reported. One day prior to the assay, the U3A STAT3 luciferase reporter cell line was seeded in a 96-well plate at 8000 cells per well. Cells were then incubated with compounds at the indicated concentration, and each well was treated with either media control or stimulated with 10 ng/mL oncostatin M (OSM) and incubated for six hours at 37 °C. Luciferase activity was quantified using the Bright-Glo Luciferase Assay system (Promega) and a Luminoskan Ascent Luminometer (Labsystems). Collected luminescence readings were normalized to DMSO-treated controls. Stimulation with (+OSM) gave luminescence values around 2.5 times that of the unstimulated control (−OSM). Quadruplicates were averaged and plotted with error bars representing standard deviation. Each condition was performed in quadruplicate on two separate occasions (n = 2) with representative data shown. Statistical significance was determined using Ordinary one-way ANOVA with a Dunnett multiple comparison test.

purified human DHFR = biological target: T2, purified human DHFR (Homo sapiens, UniProt P00374); experiment: DHFR enzymatic inhibition assay (NADPH absorbance at 340 nm); type: biochemical; conditions: 200 nM DHFR, 137.5 μM DHF, 125 μM NADPH; n = 2; read-out: IC50
T2 construct: made in house; host or cells: E. coli BL21 (DE3) T1R pRARE2, pNIC-Bsa4 plasmid
T2 sequence (P00374 1-187): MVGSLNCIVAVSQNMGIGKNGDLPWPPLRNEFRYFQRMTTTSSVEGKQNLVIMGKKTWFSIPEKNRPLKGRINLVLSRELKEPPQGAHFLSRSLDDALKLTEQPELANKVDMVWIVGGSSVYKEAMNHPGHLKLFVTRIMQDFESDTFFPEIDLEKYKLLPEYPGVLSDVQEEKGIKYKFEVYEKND
Method: Working stocks of each inhibitor were created so that the final concentration of DMSO in each reaction was 2% in a final reaction volume of 100 μL. […] Reactions were prepared on ice in 384-well plates. […] Consumption of NADPH by measuring absorbance at 340 nm was used to monitor the progress of the reaction. Readings were taken every 5 min for 1 h at 37 °C using a Synergy MX microplate reader (BioTek).
Percent inhibition relative to the no-inhibitor control was determined using Equation (1). (1) % Inhibition=A340Inhibitor−A340DMSO Control/A340No DHFR−A340DMSO Control×100
Percent inhibition data were then fit to the four-parameter logistic model (Equation (2)) in GraphPad Prism 9.4.1 to determine half-maximal inhibitory concentrations (IC50):(2) y=Bottom+Top−Bottom/1+IC50/x^Hill slope where y represents the percent inhibition, x represents the concentration of inhibitor (μM), the bottom and top represent the bottom and top plateaus, and the Hill slope represents the slope factor. Each experiment contained duplicates of each sample, and each experiment was performed 2 times (n = 2). An ordinary one-way ANOVA was used to test for statistical significance between treatments.

MCF-7 cells = experiment: Resazurin viability assay with or without folinic acid, MCF-7; type: cell-based, Human; conditions: 72 h; for Relative Viability (%) – Inhibitor + FA Treatment: MCF-7, 10 μM + 300 μg/mL folinic acid; for Relative Viability (%) – Inhibitor Alone: MCF-7, 10 μM, relative to DMSO; for Rescue of viability impairment by folinic acid: MCF-7, 10 μM ± 300 μg/mL FA
Method: (§1) The incorporation and metabolism of resazurin to resorufin was used to monitor cell viability. MDA-MB-468, MCF7, and MDA-MB-231 cells were grown in 96-well plates with a total of 5000 cells per well in a total volume of 180 μL for 24 h, as described above. After 24 h of growth, cells were treated with increasing concentrations of compounds (0.0457–100 μM) for 72 h. A vehicle control was also performed. […] The volume of treatment added to each well was 20 μL. For folinic acid rescue experiments, 5000 cells were treated with 10 μM compound with or without 300 μg/mL folinic acid (Supelco). After 72 h of treatment, resazurin was added to a final concentration of 44 μM, and cells were incubated for an additional 4 h at 37 °C. The fluorescence of resorufin was monitored on a Synergy MX microplate reader (BioTek) using an excitation wavelength of 540 nm and an emission wavelength of 600 nm. Percent viability relative to the DMSO control was determined. Each treatment was performed in triplicate, and each individual experiment was repeated three times (n = 3).

MDA-MB-231 cells [4] = experiment: Resazurin viability assay with or without folinic acid, MDA-MB-231; type: cell-based, Human; conditions: 72 h; for Relative Viability (%) – Inhibitor + FA Treatment: MDA-MB-231, 10 μM + 300 μg/mL folinic acid; for Relative Viability (%) – Inhibitor Alone: MDA-MB-231, 10 μM, relative to DMSO
Method: as §1

MDA-MB-468 cells = experiment: Resazurin viability assay with or without folinic acid, MDA-MB-468; type: cell-based, Human; conditions: 72 h; for Relative Viability (%) – Inhibitor + FA Treatment: MDA-MB-468, 10 μM + 300 μg/mL folinic acid; for Relative Viability (%) – Inhibitor Alone: MDA-MB-468, 10 μM, relative to DMSO
Method: as §1

SMILES	Normalized Band Density (%) of soluble DHFR [1]	Normalized Band Density (%) of soluble DHFR ([1]; listed as Methotrexate) [%]	Orotate levels with FA supplementation (MDA-MB-231 cells [2]; 10 μM + 300 μg/mL FA)	AICAR levels (MDA-MB-231 cells [2]; 10 μM, inhibitor alone)	Orotate levels (MDA-MB-231 cells [2]; 10 μM, inhibitor alone)	UDP level (MDA-MB-231 cells [2]; 10 μM, inhibitor alone versus DMSO)	Inhibition of STAT3-dependent luciferase activity [3]	IC50 (purified human DHFR) [µM]	Relative Viability (%) – Inhibitor + FA Treatment (MCF-7 cells) [%]	Relative Viability (%) – Inhibitor Alone (MCF-7 cells) [%]	Relative Viability (%) – Inhibitor + FA Treatment (MDA-MB-231 cells [4]) [%]	Relative Viability (%) – Inhibitor Alone (MDA-MB-231 cells [4]) [%]	Relative Viability (%) – Inhibitor + FA Treatment (MDA-MB-468 cells) [%]	Relative Viability (%) – Inhibitor Alone (MDA-MB-468 cells) [%]	Rescue of viability impairment by folinic acid (MCF-7 cells)	Rescue of viability impairment by folinic acid (MDA-MB-231 cells [4]; MDA-MB-231, 10 μM ± 300 μg/mL FA)	Rescue of viability impairment by folinic acid (MDA-MB-468 cells; MDA-MB-468, 10 μM ± 300 μg/mL FA)
CN(Cc1cnc2nc(N)nc(N)c2n1)c1ccc(C(=O)N[C@@H](CCC(=O)O)C(=O)O)cc1 [MTX, methotrexate]	greater than 100%	123.37 ± 73.5	returned orotate to vehicle control levels	failed to increase AICAR levels in a statistically significant manner	decreased or statistically insignificant changes in orotate levels	not upon treatment with MTX and 127159 alone	potent inhibition of luciferase activity										
CCc1nc(N)nc(N)c1-c1ccc(Cl)c(Cl)c1 [compound 3062, etoprine]	83.56 ± 52.1%							8.6 ± 2.7	100.10 ± 8.2	65.16 ± 9.0	65.52 ± 15.0	52.76 ± 12.1	81.08 ± 13.2	65.38 ± 1.3			
CC1(C)N=C(N)N=C(N)N1c1ccc(Cl)c(Cl)c1 [compound 3077]															small yet statistically significant rescue		
CCS(=O)(=O)O.CN(C)C(=O)c1cccc(COc2ccc(N3C(N)=NC(N)=NC3(C)C)cc2Cl)c1 [compound 139105, triazinate]	86.05 ± 21.9%								82.83 ± 9.7	66.53 ± 8.1	65.85 ± 13.7	46.35 ± 9.0	81.38 ± 16.9	57.09 ± 8.0	not rescued	not rescued	statistically significant rescue
